What was measured:
DYN-1 = molecular target: T1, DYN-1 (Caenorhabditis elegans, UniProt P39055); assay: […] release from [γ-32P]GTP, charcoal assay; assay type: biochemical; settings: 1 mM GTP, 150 mM NaCl, with or without lipid; labelled compound
T1 sequence (P39055 1-830): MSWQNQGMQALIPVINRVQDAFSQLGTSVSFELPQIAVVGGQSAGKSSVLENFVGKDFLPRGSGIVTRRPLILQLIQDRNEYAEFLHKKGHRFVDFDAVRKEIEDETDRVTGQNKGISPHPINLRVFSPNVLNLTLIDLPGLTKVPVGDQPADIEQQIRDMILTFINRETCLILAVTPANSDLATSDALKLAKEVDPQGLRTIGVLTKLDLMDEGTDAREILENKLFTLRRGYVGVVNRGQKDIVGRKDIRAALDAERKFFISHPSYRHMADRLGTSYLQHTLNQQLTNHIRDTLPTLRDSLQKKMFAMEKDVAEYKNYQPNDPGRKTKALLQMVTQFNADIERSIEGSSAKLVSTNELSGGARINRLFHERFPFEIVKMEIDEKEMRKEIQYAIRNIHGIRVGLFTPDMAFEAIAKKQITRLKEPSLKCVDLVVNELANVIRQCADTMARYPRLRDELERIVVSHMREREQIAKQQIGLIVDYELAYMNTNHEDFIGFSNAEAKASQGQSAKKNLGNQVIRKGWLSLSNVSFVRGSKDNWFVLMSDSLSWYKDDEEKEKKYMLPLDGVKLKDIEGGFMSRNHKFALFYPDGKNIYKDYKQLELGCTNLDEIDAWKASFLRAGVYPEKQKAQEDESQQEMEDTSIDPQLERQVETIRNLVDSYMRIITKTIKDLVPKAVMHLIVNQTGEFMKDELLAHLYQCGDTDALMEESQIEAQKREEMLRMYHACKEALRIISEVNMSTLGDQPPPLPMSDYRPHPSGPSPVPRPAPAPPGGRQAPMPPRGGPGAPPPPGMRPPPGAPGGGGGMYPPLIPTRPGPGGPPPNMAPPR

rat dynamin = molecular target: T2, rat dynamin (Rattus norvegicus, UniProt P21575); assay: […] release from [γ-32P]GTP, charcoal assay; assay type: biochemical; settings: 1 mM GTP, 150 mM NaCl, with or without lipid; labelled compound
T2 sequence (P21575 1-864): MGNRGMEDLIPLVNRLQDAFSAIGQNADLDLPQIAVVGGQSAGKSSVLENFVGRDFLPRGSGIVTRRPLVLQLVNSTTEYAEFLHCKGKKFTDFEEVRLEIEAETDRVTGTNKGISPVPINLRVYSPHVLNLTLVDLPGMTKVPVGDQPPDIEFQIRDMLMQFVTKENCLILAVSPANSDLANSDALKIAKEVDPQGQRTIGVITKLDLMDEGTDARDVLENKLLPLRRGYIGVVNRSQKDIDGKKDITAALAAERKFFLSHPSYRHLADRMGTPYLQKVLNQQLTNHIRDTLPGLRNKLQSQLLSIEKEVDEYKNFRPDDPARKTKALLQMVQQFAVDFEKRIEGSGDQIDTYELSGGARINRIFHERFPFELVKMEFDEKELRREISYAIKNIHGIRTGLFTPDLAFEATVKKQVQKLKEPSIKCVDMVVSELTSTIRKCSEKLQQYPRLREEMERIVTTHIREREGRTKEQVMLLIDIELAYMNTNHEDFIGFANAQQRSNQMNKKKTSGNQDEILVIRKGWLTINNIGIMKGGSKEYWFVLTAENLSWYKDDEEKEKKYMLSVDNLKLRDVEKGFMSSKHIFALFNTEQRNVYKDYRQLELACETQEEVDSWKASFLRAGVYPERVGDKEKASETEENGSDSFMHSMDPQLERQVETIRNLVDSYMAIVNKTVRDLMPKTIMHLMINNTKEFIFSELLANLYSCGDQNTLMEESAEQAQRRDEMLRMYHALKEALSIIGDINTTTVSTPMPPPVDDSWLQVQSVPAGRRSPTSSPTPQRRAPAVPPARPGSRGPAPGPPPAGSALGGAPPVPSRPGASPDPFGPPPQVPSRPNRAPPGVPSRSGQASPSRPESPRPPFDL

[1] = molecular target: the molecule itself; assay: cryo-TEM of protein incubated with liposomes

With Nc1nc2c(ncn2[C@@H]2O[C@H](COP(=O)(O)OP(=O)(O)OP(=O)(O)O)[C@@H](O)[C@H]2O)c(=O)[nH]1 [GTP] the “32P release from [γ-32P]GTP, charcoal assay” value (DYN-1) was “C. elegans DYN-1 displayed a low basal-level GTP hydrolysis activity” and the “32P release from [γ-32P]GTP, charcoal assay” value (rat dynamin) was “DYN-1 displayed a low basal-level GTP hydrolysis activity as rat dynamin did”.

B1: recombinant DYN-1(G40E) purified from SF21 insect cells (natural protein, C. elegans, UniProt P39055 1-830, looked up)
chain: MSWQNQGMQALIPVINRVQDAFSQLGTSVSFELPQIAVVEGQSAGKSSVLENFVGKDFLPRGSGIVTRRPLILQLIQDRNEYAEFLHKKGHRFVDFDAVRKEIEDETDRVTGQNKGISPHPINLRVFSPNVLNLTLIDLPGLTKVPVGDQPADIEQQIRDMILTFINRETCLILAVTPANSDLATSDALKLAKEVDPQGLRTIGVLTKLDLMDEGTDAREILENKLFTLRRGYVGVVNRGQKDIVGRKDIRAALDAERKFFISHPSYRHMADRLGTSYLQHTLNQQLTNHIRDTLPTLRDSLQKKMFAMEKDVAEYKNYQPNDPGRKTKALLQMVTQFNADIERSIEGSSAKLVSTNELSGGARINRLFHERFPFEIVKMEIDEKEMRKEIQYAIRNIHGIRVGLFTPDMAFEAIAKKQITRLKEPSLKCVDLVVNELANVIRQCADTMARYPRLRDELERIVVSHMREREQIAKQQIGLIVDYELAYMNTNHEDFIGFSNAEAKASQGQSAKKNLGNQVIRKGWLSLSNVSFVRGSKDNWFVLMSDSLSWYKDDEEKEKKYMLPLDGVKLKDIEGGFMSRNHKFALFYPDGKNIYKDYKQLELGCTNLDEIDAWKASFLRAGVYPEKQKAQEDESQQEMEDTSIDPQLERQVETIRNLVDSYMRIITKTIKDLVPKAVMHLIVNQTGEFMKDELLAHLYQCGDTDALMEESQIEAQKREEMLRMYHACKEALRIISEVNMSTLGDQPPPLPMSDYRPHPSGPSPVPRPAPAPPGGRQAPMPPRGGPGAPPPPGMRPPPGAPGGGGGMYPPLIPTRPGPGGPPPNMAPPR
B1: binds [1].

Source: publication PMC2820425 (Molecular Biology of the Cell, 2010)
